Structures can show the parent of a compound that is named as a salt. Where two headings read alike, the source gives them in different places.
Tests used:
[1] = system: female Mullerian ducts; conditions: chick embryo; Huston et al., Gen. Comp. Endocrinol. 57: 88-102 (1985); cited from earlier work
[2] = system: hybrids used in Example 3; conditions: for Estradiol / Testosterone: serum
Description: (§1) To more easily monitor changes in development as a function of age according to genetic sex two different autosexing strains of chickens were treated as above. All chickens were allowed to reach sexual maturity. […] One of the three was killed after 24 weeks and the remaining two (tag numbers 1977 and 1981) were killed after 31 weeks. Prior to killing blood was taken from each animal and used to determine sex steroid levels. At the time of killing the gonads were removed and fixed for histology in Bouin's fixative.
Estradiol and testosterone levels were determined in serum samples using commercial RIA assay kits which are well known in the art.

[3] = in vivo; conditions: chicken, embryos in ovo, %Hatched
Description: (§2) The inhibitor was dissolved in saline at concentrations ranging form 1 mg/ml to 100 mg/ml and the injection volume ranged from 20 µl to 100 µl producing doses of 20 µg to 10 mg. Injections were made with a 23 G x 1 inch needle. A light source was used to orient the eggs and the injection is made under the air sac into the egg white surrounding the developing embryo. The hole was sealed with Scotch tape and the eggs were placed in a humidified, rocking incubator. At day fourteen of incubation, the embryos were removed form their shells and dissected to observe development of the gonads.
(§3) The procedures are the same as described above.

[4] = system: Abor Acre x Abor Acre Hybrid Broiler Chickens; assay: in vivo
Description: as §2, §3

[5] = system: gonads from control males and treated females; conditions: in vivo
Description: Histological examination of gonads from control males and treated females at 31 weeks of age was carried out on tissue fixed in Bouin's solution prior to embedding in paraffin. Sections were stained with hematoxylin and eosin.

[6] = system: Line 139 White Leghorn Chickens; conditions: for Female / Male / Und. (Undetermined): gonadal sex type at day 14, number of embryos; for Survived day 14: number of embryos
Description: as §2

[7] = system: Line 67 White Leghorn embryos; conditions: in vivo
Description: as §2

[8] = system: turkey embryos
Description: A light source was used to orient the eggs and the injection is made under the air sac into the egg white surrounding the developing embryo. The hole was sealed with Scotch tape and the eggs were placed in a humidified, rocking incubator. The birds were allowed to hatch and the phenotypic and genotypic sex determined.

[9] = system: autosexing strains of chickens
Description: as §1
The right gonad and oviduct of the normal female begins to regress during embryogenesis and at maturity females have a single ovary and oviduct. The remaining left ovary consists of a series of follicles staged to mature at daily intervals.

[10] = system: F₁ Hybrids of Rhode Island Males Crossed With Plymouth Barred Rock Females; assay: Gonadal sex type of 14 day embryos after in ovo injection; type: in vivo, chicken
Description: Fertilized chicken embryos were injected on day 5 of incubation with the aromatase inhibitor 1,4,6-androstatriene-3,17-dione. The inhibitor was dissolved in 1,2-propane-diol at a concentration of 20 mg/ml and the injection volume was 100 µl producing a dose of 2 mg.

[11] = animal 1977, treated genetic female, phenotypic male, 31 weeks
[12] = animal 1978, treated genetic male
[13] = animal 1981, treated genetic female, phenotypic male, 31 weeks
[14] = Experiment 1, 20 µg injected on day 5
[15] = Experiment 1, 100 µg injected on day 5
[16] = Experiment 1, 2 mg injected on day 5
[17] = Experiment 1, 10 mg injected on day 5, none survived
[18] = Experiment 2, 100 µg injected on day 4
[19] = Experiment 2, 1 mg injected on day 4
[20] = Experiment 3, 100 µg injected on day 5
[21] = Experiment 3, 1 mg injected on day 5
[22] = gonadal sex type at day 14, number of embryos, 2.0 mg injected on day 5

SMILES: C#C[C@]1(O)CC[C@H]2[C@@H]3CCC4=CC(=O)CC[C@@H]4[C@H]3CC[C@@]21C [norethindrone]
- effect on the female Mullerian ducts [1]: partial regression of the upper end of the left Mullerian duct as well as complete loss of the lower ends of both ducts

SMILES: O=C(c1ccc(OCCN2CCCC2)cc1)c1c(-c2ccc(O)cc2)sc2cc(O)ccc12 [LY117018]
- effect on the female Mullerian ducts [1]: little effect

SMILES: N#Cc1ccc(C2CCCc3cncn32)cc1 (racemic) [± 5-(p-cyanophenyl)-5,6,7,8-tetrahydroimidazo [1,5-α] pyridine hydrochloride]
- serum hormone profiles of treated females ([2]; 31 week old): resembling adult males
- Estradiol ([2]; animal 1976, treated genetic female that did not respond, phenotypically female): 57 ng/mL
- Estradiol [2, 11]: 12 ng/mL
- Testosterone [2, 11]: 224 ng/mL
- Estradiol [2, 12]: 5 ng/mL
- Testosterone [2, 12]: 412 ng/mL
- Estradiol [2, 13]: 2 ng/mL
- Testosterone [2, 13]: 109 ng/mL
- survival ([3]; 0.01 mg, 10 µg injected on day 5): 72%
- survival ([3]; 0.05 mg, 50 µg injected on day 0): 40%
- survival ([3]; 0.05 mg, 50 µg injected on day 5): 67%
- survival ([3]; 0.1 mg, 100 µg injected on day 5): 69%
- Female ([4]; 10 µg injected on day 5): 36
- Male ([4]; 10 µg injected on day 5): 60
- Female ([4]; 50 µg injected on day 0): 2
- Male ([4]; 50 µg injected on day 0): 45
- Female ([4]; 50 µg injected on day 5): 0
- Male ([4]; 50 µg injected on day 5): 88
- Female ([4]; 100 µg injected on day 5): 0
- Male ([4]; 100 µg injected on day 5): 91
- seminiferous tubules in gonads of treated females [5]: present in both the left and right gonads
- Female [6, 14]: 2
- Male [6, 14]: 0
- Und. (Undetermined) [6, 14]: 0
- Female [6, 15]: 0
- Male [6, 15]: 3
- Und. (Undetermined) [6, 15]: 0
- Female [6, 16]: 0
- Male [6, 16]: 2
- Und. (Undetermined) [6, 16]: 0
- Female [6, 17]: 0
- Male [6, 17]: 0
- Und. (Undetermined) [6, 17]: 0
- Female [6, 18]: 0
- Male [6, 18]: 3
- Und. (Undetermined) [6, 18]: 1
- Female [6, 19]: 0
- Male [6, 19]: 4
- Und. (Undetermined) [6, 19]: 0
- Female [6, 20]: 0
- Male [6, 20]: 4
- Und. (Undetermined) [6, 20]: 1
- Female [6, 21]: 0
- Male [6, 21]: 5
- Und. (Undetermined) [6, 21]: 0
- Survived day 14 ([6]; Experiment 1, 20 µg injected on day 5, 4 injected): 2
- Survived day 14 ([6]; Experiment 1, 100 µg injected on day 5, 4 injected): 3
- Survived day 14 ([6]; Experiment 1, 2 mg injected on day 5, 4 injected): 2
- Survived day 14 ([6]; Experiment 1, 10 mg injected on day 5, 4 injected): 0
- Survived day 14 ([6]; Experiment 2, 100 µg injected on day 4, 5 injected): 4
- Survived day 14 ([6]; Experiment 2, 1 mg injected on day 4, 6 injected): 4
- Survived day 14 ([6]; Experiment 3, 100 µg injected on day 5, 7 injected): 5
- Survived day 14 ([6]; Experiment 3, 1 mg injected on day 5, 7 injected): 5
- vent sexed as males [7]: all birds
- phenotype of unhatched embryos ([8]; 1 mg, 2 pipped embryos and 2 embryos that died after 25 and 27 days of incubation): All embryos were phenotypic male
- vent sexed as male ([8]; 1 mg, of 4 hatched birds, 2 feather-sexed as female and 2 as male): 4
- birds hatched ([8]; eggs inoculated with 1 mg, day 4 or 5 of incubation): Four
- abdominal fat of treated females ([9]; 31 week old, abdominal cavities opened, compared with control females): absence of abdominal fat
- treated females developed a male phenotype ([9]; Sex-Sal autosexing strain, injected day 4 or 5, at sexual maturity): one of two
- appearance and behavior of treated females ([9]; by seven months of age, injected day 4 or 5): obviously masculine in appearance and behavior
- adult females developed male phenotypes ([9]; hybrids used in Example 3, injected day 4 or 5, at sexual maturity): three of four
- presence of testes in treated females ([9]; two gonads without oviducts, at necropsy): three of the four

SMILES: CC/C(=C(\c1ccccc1)c1ccc(OCCN(C)C)cc1)c1ccccc1 [tamoxifen]
- effect on the female Mullerian ducts [1]: little effect

SMILES: C[C@]12C=CC(=O)C=C1C=C[C@@H]1[C@@H]2CC[C@]2(C)C(=O)CC[C@@H]12 [1,4,6-androstatriene-3,17-dione]
- birds being males ([10]; 2 mg injected on day 5, gonads at day 14): 100%
- Female [10, 22]: 0
- Male [10, 22]: 5
- Survived day 14 ([10]; number of embryos, 2.0 mg in 1,2-propane-diol injected on day 5): 5
